In brackets after ≈: the same amount, converted by molar mass. Activity calls are given as the source filed them. The rule behind the calls is not given here.
Columns and labels:
Escherichia coli [1] = assay: Antibacterial activity against Escherichia coli ATCC 25922 incubated for 16 to 20 hrs using 10^4 CFU/ml bacterial inoculum by broth microdilution method; assay type: functional; conditions: time 16-20 hrs
Staphylococcus aureus [2] = assay: Antibacterial activity against Staphylococcus aureus ATCC 29213 at pH 8.2 incubated for 16 to 20 hrs by broth microdilution method; assay type: functional; conditions: time 16-20 hrs
[3] = Genotoxicity in Salmonella typhimurium TA1537 assessed as number of revertants at 8x10^-6 mg/plate incubated for 72 hrs in presence of liver S9 fraction by Ames test (reference value: 20 +/- 5); assay type: toxicity, subcellular; conditions: salmonella enterica subsp. enterica serovar typhimurium, s9, 72 h
Escherichia coli [4] = assay: Antibacterial activity against Escherichia coli ATCC 25922 at pH 7 incubated for 16 to 20 hrs by broth microdilution method; assay type: functional; conditions: time 16-20 hrs
[5] = Genotoxicity in Salmonella typhimurium TA98 assessed as number of revertants at 1x10^-3 mg/plate incubated for 72 hrs in absence of liver S9 fraction by Ames test (reference value: 57.33 +/- 3.06); assay type: toxicity; conditions: salmonella enterica subsp. enterica serovar typhimurium, s9, 72 h
[6] = Genotoxicity in Salmonella typhimurium TA98 assessed as number of revertants at 4x10^-5 mg/plate incubated for 72 hrs in absence of liver S9 fraction by Ames test (reference value: 57.33 +/- 3.06); assay type: toxicity; conditions: salmonella enterica subsp. enterica serovar typhimurium, s9, 72 h
[7] = Genotoxicity in Salmonella typhimurium TA102 assessed as number of revertants at 1x10^-3 mg/plate incubated for 72 hrs in absence of liver S9 fraction by Ames test (reference value: 386.67 +/- 23.44); assay type: toxicity; conditions: salmonella enterica subsp. enterica serovar typhimurium, s9, 72 h
[8] = Genotoxicity in Salmonella typhimurium TA100 assessed as number of revertants at 4x10^-5 mg/plate incubated for 72 hrs in presence of liver S9 fraction by Ames test (reference value: 204.33 +/- 8.14); assay type: toxicity, subcellular; conditions: salmonella enterica subsp. enterica serovar typhimurium, s9, 72 h
Staphylococcus aureus [9] = assay: Bactericidal activity against Staphylococcus aureus ATCC 29213 incubated for 20 to 24 hrs by CLSI based analysis; assay type: functional; conditions: time 20-24 hrs
[10] = Genotoxicity in Salmonella typhimurium TA98 assessed as number of revertants at 2x10^-4 mg/plate incubated for 72 hrs in absence of liver S9 fraction by Ames test (reference value: 57.33 +/- 3.06); assay type: toxicity; conditions: salmonella enterica subsp. enterica serovar typhimurium, s9, 72 h
[11] = Genotoxicity in Salmonella typhimurium TA98 assessed as number of revertants at 2x10^-4 mg/plate incubated for 72 hrs in presence of liver S9 fraction by Ames test (reference value: 43.67+/- 7.1); assay type: toxicity, subcellular; conditions: salmonella enterica subsp. enterica serovar typhimurium, s9, 72 h
Klebsiella pneumoniae = assay: Antibacterial activity against Klebsiella pneumoniae ATCC 13883 incubated for 16 to 20 hrs by broth microdilution method; assay type: functional; conditions: time 16-20 hrs
Escherichia coli [12] = assay: Antibacterial activity against Escherichia coli ATCC 25922 at pH 8.6 incubated for 16 to 20 hrs by broth microdilution method; assay type: functional; conditions: time 16-20 hrs
[13] = Genotoxicity in Salmonella typhimurium TA1537 assessed as number of revertants at 1.6x10^-6 mg/plate incubated for 72 hrs in presence of liver S9 fraction by Ames test (reference value: 20 +/- 5); assay type: toxicity, subcellular; conditions: salmonella enterica subsp. enterica serovar typhimurium, s9, 72 h
[14] = Genotoxicity in Salmonella typhimurium TA102 assessed as number of revertants at 2x10^-4 mg/plate incubated for 72 hrs in absence of liver S9 fraction by Ames test (reference value: 386.67 +/- 23.44); assay type: toxicity; conditions: salmonella enterica subsp. enterica serovar typhimurium, s9, 72 h
Staphylococcus aureus [15] = assay: Antibacterial activity against Staphylococcus aureus ATCC 29213 at pH 7.6 incubated for 16 to 20 hrs by broth microdilution method; assay type: functional; conditions: time 16-20 hrs
Escherichia coli [16] = assay: Inhibition of protein synthesis in Escherichia coli ATCC 25922 assessed as reduction in protein content at […] measured upto 12 hrs by microporous enzyme labeling method relative to control; assay type: functional
[17] = Genotoxicity in Salmonella typhimurium TA1537 assessed as number of revertants at 1x10^-3 mg/plate incubated for 72 hrs in absence of liver S9 fraction by Ames test (reference value: 22.67 +/- 2.52); assay type: toxicity; conditions: salmonella enterica subsp. enterica serovar typhimurium, s9, 72 h
Escherichia coli [18] = assay: Antibacterial activity against Escherichia coli incubated for 16 to 20 hrs by broth microdilution method; assay type: functional; conditions: time 16-20 hrs
Staphylococcus aureus [19] = assay: Antibacterial activity against Staphylococcus aureus ATCC 25923 incubated for 16 to 20 hrs by broth microdilution method; assay type: functional; conditions: time 16-20 hrs
Staphylococcus aureus [20] = assay: Antibacterial activity against Staphylococcus aureus ATCC 25923 infected in kunming mouse assessed as reduction in bacterial load at 20 to 40 mg/kg, iv measured after 1 hr; assay type: functional, organism-based; conditions: dose 20-40 mg/kg
Staphylococcus aureus [21] = assay: Antibacterial activity against Staphylococcus aureus ATCC 25923 infected in kunming mouse assessed as reduction in viable pathogens at 20 mg/kg, iv measured after 1 hr; assay type: functional, organism-based
Staphylococcus aureus [22] = assay: Antibacterial activity against Staphylococcus aureus incubated for 16 to 20 hrs by broth microdilution method; assay type: functional; conditions: time 16-20 hrs
[23] = Genotoxicity in Salmonella typhimurium TA1535 assessed as number of revertants at 8x10^-6 mg/plate incubated for 72 hrs in absence of liver S9 fraction by Ames test (reference value: 14.33 +/- 0.58); assay type: toxicity; conditions: salmonella enterica subsp. enterica serovar typhimurium, s9, 72 h
[24] = Genotoxicity in Salmonella typhimurium TA1535 assessed as number of revertants at 1.6x10^-6 mg/plate incubated for 72 hrs in presence of liver S9 fraction by Ames test (reference value: 15.33 +/- 2.52); assay type: toxicity, subcellular; conditions: salmonella enterica subsp. enterica serovar typhimurium, s9, 72 h
[25] = Genotoxicity in Salmonella typhimurium TA100 assessed as number of revertants at 1x10^-3 mg/plate incubated for 72 hrs in absence of liver S9 fraction by Ames test (reference value: 221.67 +/- 15.57); assay type: toxicity; conditions: salmonella enterica subsp. enterica serovar typhimurium, s9, 72 h
[26] = Genotoxicity in Salmonella typhimurium TA1537 assessed as number of revertants at 1x10^-3 mg/plate incubated for 72 hrs in presence of liver S9 fraction by Ames test (reference value: 20 +/- 5); assay type: toxicity, subcellular; conditions: salmonella enterica subsp. enterica serovar typhimurium, s9, 72 h
[27] = Genotoxicity in Salmonella typhimurium TA102 assessed as number of revertants at 1.6x10^-6 mg/plate incubated for 72 hrs in presence of liver S9 fraction by Ames test (reference value: 465.33 +/- 18.04); assay type: toxicity, subcellular; conditions: salmonella enterica subsp. enterica serovar typhimurium, s9, 72 h
Escherichia coli [28] = assay: Antibacterial activity against Escherichia coli ATCC 25922 at pH 7.2 incubated for 16 to 20 hrs by broth microdilution method; assay type: functional; conditions: time 16-20 hrs
[29] = Genotoxicity in Salmonella typhimurium TA1535 assessed as number of revertants at 1.6x10^-6 mg/plate incubated for 72 hrs in absence of liver S9 fraction by Ames test (reference value: 14.33 +/- 0.58); assay type: toxicity; conditions: salmonella enterica subsp. enterica serovar typhimurium, s9, 72 h
[30] = Toxicity in Kunming mouse infected with Staphylococcus aureus ATCC 25923 assessed as hyperelastic lung tissue at 20 to 40 mg/kg, iv measured after 1 hr by hematoxylin and eosin staining based microscopic analysis; assay type: organism-based; conditions: in vivo, dose 20-40 mg/kg
[31] = Genotoxicity in Salmonella typhimurium TA1537 assessed as number of revertants at 8x10^-6 mg/plate incubated for 72 hrs in absence of liver S9 fraction by Ames test (reference value: 22.67 +/- 2.52); assay type: toxicity; conditions: salmonella enterica subsp. enterica serovar typhimurium, s9, 72 h
[32] = Genotoxicity in Salmonella typhimurium TA1537 assessed as number of revertants at 4x10^-5 mg/plate incubated for 72 hrs in presence of liver S9 fraction by Ames test (reference value: 20 +/- 5); assay type: toxicity, subcellular; conditions: salmonella enterica subsp. enterica serovar typhimurium, s9, 72 h
Escherichia coli [33] = assay: Antibacterial activity against Escherichia coli ATCC 25922 at pH 6.6 incubated for 16 to 20 hrs by broth microdilution method; assay type: functional; conditions: time 16-20 hrs

CC[C@H]1OC(=O)C[C@@H](O)[C@H](C)[C@@H](O[C@@H]2O[C@H](C)[C@@H](O)[C@H](N(C)C)[C@H]2O)[C@@H](CCN(C)Cc2cn(-c3cnc4ccccc4c3)nn2)C[C@@H](C)C(=O)/C=C/C(C)=C/[C@@H]1CN1CCCCCC1
MIC (Escherichia coli [1]): 0.25 µg/mL (≈ 0.277 µM) | MIC (Staphylococcus aureus [2]): ≤ 0.0625 µg/mL | Activity [3]: 17.67 | MIC (Escherichia coli [4]): 4 µg/mL (≈ 4.43 µM) | Activity [5]: 60.33 | Activity [6]: 62.33 | Activity [7]: 418 | Activity [8]: 162 | MBC (Staphylococcus aureus [9]): 0.25 µg/mL (≈ 0.277 µM) | Activity [10]: 61.33 | Activity [11]: 44.33 | MIC (Klebsiella pneumoniae): 1 µg/mL (≈ 1.11 µM) | MIC (Escherichia coli [12]): 0.25 µg/mL (≈ 0.277 µM) | Activity [13]: 15 | Activity [14]: 449.33 | MIC (Staphylococcus aureus [15]): 0.25 µg/mL (≈ 0.277 µM) | inhibition (Escherichia coli [16]): 32.1% | Activity [17]: 15.33 | MIC (Escherichia coli [18]): 1 µg/mL (≈ 1.11 µM) | MIC (Staphylococcus aureus [19]): 0.125 µg/mL (≈ 0.139 µM) | Activity (Staphylococcus aureus [20]): Active | Activity (Staphylococcus aureus [21]): Active | MIC (Staphylococcus aureus [22]): 0.25 µg/mL (≈ 0.277 µM) | Activity [23]: 13 | Activity [24]: 16.33 | Activity [25]: 231 | Activity [26]: 15.67 | Activity [27]: 449.33 | MIC (Escherichia coli [28]): 1 µg/mL (≈ 1.11 µM) | Activity [29]: 6.67 | Activity [30]: Non-Toxic | Activity [31]: 21.33 | Activity [32]: 14.67 | MIC (Escherichia coli [33]): 32 µg/mL (≈ 35.5 µM)
